# Assay results: patent US20260224538A1 (Purdue Research Foundation, priority 2023, published 2026)
# What was measured:
# Type in all cases: biochemical
# [1] = biological target: T1, α-synuclein (α-syn) (Homo sapiens, UniProt P37840); assay: Thioflavin-T (ThT) fluorescence assay of α-syn fibril formation
# T1 construct: purchased rPeptide
# Experimental: (§1) Thioflavin-T (ThT) fluorescence assays. Thioflavin-T (ThT) fluorescence assays were used to monitor fibril formation of recombinant Ap (fragments 1-40 and 1-42), recombinant α-syn, recombinant tau isoform 2N4R, synthetic IAPP, and synthetic TTR peptides treated with BTA and its derivatives. The IAPP ThT assay was performed in 10 mM PBS (pH 7.4) at a final concentration of 10 μM for both IAPP and ThT as published previously. Aβ fragments 1-40 and 1-42 were tested at 7 μM in 10 mM of PBS using ThT at a final concentration of 20 μM. Kinetics of α-syn fibrillization were performed as published previously.^36-37 TTR fragment kinetics of fibril formation were assessed at 10 μM in 100 mM sodium acetate buffer supplemented with 100 mM KCl and 1 mM ethylenediaminetetraacetic acid (EDTA) (pH 4) with 20 μM ThT. The fluorescence emission experiments were performed with the excitation and emission wavelengths set at 440 and 485 nm, respectively, with a Synergy HT multi-mode microplate reader (BioTek, Winooski, VT). Samples were measured in three replicates, and the experiments were repeated three times using at least two different stock solutions. For each time point, arbitrary units of fluorescence were calculated from the mean values normalized against the maximum value in each completed assay. The lag time for each condition was calculated as previously described. All results contained in histograms were presented as mean±SEM. Data were analyzed by the one-way analysis of variance with Dunnett's multiple comparisons between controls and compounds. Differences were considered statistically significant at p<0.05.
# Compounds with the highest anti-fibrillary activity were tested at 3.125, 6.25, 12.5, 25, 50, and 100 μM to obtain dose-response curves with prepared α-syn and 2N4R tau at 6.25 μM and 6 μM, respectively. Compounds were tested with α-syn using a previously published procedure. Concerning the tau (isoform 2N4R) kinetics of fibril formation, measurements of ThT fluorescence were performed with a solution of the protein diluted to a final concentration of 6 μM in PBS (pH 7.4) supplemented with 1.5 μM heparin, 20 μM ThT, 2.5 mM DTT, and 100 μM compound. Aliquots of the diluted protein solution (100 μL each) were pipetted into the wells of a 96-well plate, and a Teflon ball was added to each well. The plate was incubated at 37° C. with constant shaking at 1,000 rpm in a Tecan Spark plate reader. ThT fluorescence was measured every 15 minutes with excitation and emission wavelengths of 440 nm and 480 nm, and the data were plotted using GraphPad Prism.
# [2] = biological target: T2, Aβ1-42 (Homo sapiens, UniProt P05067); assay: ThT fluorescence assay of Aβ1-42 fibril formation; conditions: screen on prone-to-aggregate proteins (FIG. 2A, FIG. 4A); Aβ 7 μM
# T2 construct: α-syn, Aβ1-40, Aβ1-42 were procured from rPeptide; purchased rPeptide
# Experimental: as §1
# [3] = biological target: T3, TTR101-125 (Homo sapiens, UniProt P02766); assay: ThT fluorescence assay of TTR101-125 fibril formation; conditions: screen on prone-to-aggregate proteins (FIG. 4A)
# T3 construct: TTR fragments 1-25, 26-50, 51-75, 76-100, 81-105, 101-125, and 101-125 were obtained from GenScript; purchased GenScript; host or cells: synthetic peptide
# Experimental: as §1
# [4] = biological target: T4, transthyretin fragment peptide (TTR81-127) (Homo sapiens, UniProt P02766); assay: ThT fluorescence assay of TTR81-127 fibril formation; conditions: compounds at 100 μM, TTR81-127 10 μM, control 0.25% DMSO
# T4 construct: TTR fragment 81-127 was obtained from AnaSpec; purchased AnaSpec; host or cells: synthetic peptide
# Experimental: as §1
# [5] = biological target: T5, α-syn (Homo sapiens, UniProt P37840); assay: Photo-induced cross-linking of unmodified proteins (PICUP), α-syn oligomerization; conditions: for α-syn oligomer formation (PICUP): compound 50 μM, molar ratio 1:5 (protein:compound)
# T5 construct: purchased rPeptide
# Experimental: Photo-induced Cross-linking of Unmodified Proteins (PICUP) Assay. To induce oligomerization by cross-linking, α-syn (from Rpeptide, LLC) and tau isoform 2N4R were diluted in 10 mM phosphate buffer (pH 7.4) to reach a final concentration of 10 μM. Different compounds were added to the protein solution at a final concentration of 50 μM, resulting in a molar ratio of 1:5. To confirm the gradual effect of the compounds on the inhibition of α-syn oligomerization, the compounds were tested at final concentrations of 3.125, 6.25, 12.5, 25, and 50 μM. The controls consisted of samples without light exposition, without Ru(bpy) or ammonium persulfate, and without compound (i.e., 0.125% DMSO). The cross-linking reaction was initiated by the addition of 2 μL of Ru(bpy) (300 μM final concentration) and 2 μL ammonium persulfate (6 mM final concentration). Samples were irradiated immediately. Light exposure was of a one-second duration for α-syn and a three-second duration for tau isoform 2N4R, with a 53 W (120 V) incandescent lamp installed in a homemade dark-box. Each tube contained a final volume of 20 μL. After irradiation, 8.3 μL of Laemmli loading buffer containing 15% β-mercaptoethanol were immediately added to the solution, followed by incubation at 95° C. for 10 minutes. The cross-linked samples were separated on a 16% SDS-PAGE gel and visualized by Coomassie blue staining.
# T2 sequence (P05067 672-713 limits assumed): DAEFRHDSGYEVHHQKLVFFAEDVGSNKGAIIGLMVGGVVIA
smiles,measurement,setting,value
"Nc1nsc2ccc([N+](=O)[O-])cc12 [A, 5-nitro-1,2-benzothiazol-3-amine]","α-syn fibrillization (ThT), dose response","[1]; 3.125-100 μM, plateau phase",protein fibrillization was reduced
same,remaining activity at 100 µM,"[1]; compounds at 100 μM, α-syn 6.25 μM, control 0.25% DMSO, read-out: ThT a-Syn (%), maximum thioflavin T (ThT) intensity in percentage",36.2 ± 3.1%
same,"thioflavin T fluorescence intensity, α-syn","[1]; screen on prone-to-aggregate proteins (FIG. 2A, FIG. 4A)",significantly more effective at preventing the aggregation
same,"thioflavin T fluorescence intensity, Aβ1-42",[2],27.5±4%
same,"thioflavin T fluorescence intensity, TTR101-125",[3],significantly more effective at preventing the aggregation
same,"ThT TTR81-127 (%), maximum thioflavin T (ThT) intensity in percentage",[4],54.7 ± 1.4%
same,remaining activity at 100 µM,"[4]; read-out: ThT TTR81-127 (%), maximum thioflavin T (ThT) intensity in percentage",54.7 ± 1.4%
same,"α-syn oligomer formation (PICUP), dose dependence",[5]; 3.125-50 μM,reduced the oligomer formation in a dose-dependent manner
same,α-syn oligomer formation (PICUP),"[5]; listed as 5-nitro-1,2-benzothiazol-3-amine",reduced α-syn and tau isoform 2N4R oligomer formation
same,α-syn oligomer formation (PICUP),"[5]; listed as nitro-1,2-benzothiazol-3-amine",reduced the oligomer formation
